{
  "source": "patent US12246097B2",
  "about": "“Nanoparticle vaccine adjuvant and methods of use thereof” (Massachusetts Institute of Technology, priority 2018, dated 2025)",
  "origin": "cited, not measured here",
  "system": "chick embryo eggs",
  "settings": "as measured by lethal dose in chick embryo eggs",
  "data": [
    {"substance": "4′-monophosporyl lipid A [MPLA]", "values": [
      {"measurement": "toxicity reduced by a factor (relative to LPS)", "value": "more than 1000"}
    ]}
  ]
}
